Where no end group is shown, it is not given here.
Test system: GH4C1 cells
Test: Rat pituitary assay for somatostatin receptor antagonists (cAMP content of GH4C1 cells)
Format: cell-based
From the text: This assay is designed to quantitate the activity of antagonists of somatostatin that interact directly at the somatostatin receptor. The assay facilitates discovery of agents which increase growth hormone secretion by modulating the inhibitory effects of somatostatin. As aforementioned, somatostatin (also abbreviated SRIF) inhibits GH secretion in the anterior pituitary by binding to a high affinity membrane-bound (and G-protein coupled) receptor which is coupled negatively to adenyl cyclase, thereby reducing intracellular levels of cAMP that would otherwise facilitate, for example, secretion/release of GH from cytoplasmic granules. […] The screen is designed to quantitate the ability of test agents to reverse SRIF's inhibition of the elevated intracellular cAMP levels produced by VIP. […]
In particular, cyclic AMP (cAMP) content of the pituitary cell line GH4C1 was used to differentiate somatostatin agonists from antagonists. […] This afforded a convenient way to conduct a homogenous immunoradiometric assay of cAMP content in cells lysed in situ, following incubation of the cells with test compound. cAMP content in the GH4C1 cells was determined according to the manufacturer's instructions, by comparison with standards at concentrations from 10 to 1,000 nM cAMP. […]

| Molecule | effect on cAMP content of the GH4C1 cells (100 nM VIP) | effect on VIP-elevated cAMP content of the GH4C1 cells (10 nM somatostatin 14 in the presence of 100 nM VIP) |
| --- | --- | --- |
| vasoactive intestinal peptide (HSDAVFTDNYTRLRKQMAVKKYLNSILN; ends and bridges not checked; UniProt P01282 125-152, looked up) [VIP] | increased cAMP content |  |
| C[C@H](N)C(=O)NCC(=O)N[C@H]1CSSC[C@@H](C(=O)O)NC(=O)[C@H](CO)NC(=O)[C@H]([C@@H](C)O)NC(=O)[C@H](Cc2ccccc2)NC(=O)[C@H]([C@@H](C)O)NC(=O)[C@H](CCCCN)NC(=O)[C@H](Cc2c[nH]c3ccccc23)NC(=O)[C@H](Cc2ccccc2)NC(=O)[C@H](Cc2ccccc2)NC(=O)[C@H](CC(N)=O)NC(=O)[C@H](CCCCN)NC1=O [somatostatin, somatostatin 14] |  | partial inhibition |

Reference: patent US6696418B1, “Somatostatin antagonists and agonists that act at the SST subtype 2 receptor” (Pfizer Inc., priority 1999, dated 2004)
